Here are results for 15 molecules from patent EP3807270B1, “NOVEL HETEROARYL HETEROCYCLYL COMPOUNDS FOR THE TREATMENT OF AUTOIMMUNE DISEASE” (F. Hoffmann-La Roche AG, priority 2018, dated 2019).

Data set [1] concerns the target T1, human TLR8 (Homo sapiens, UniProt Q9NR97).
T1 construct: host or cells: HEK293 (HEK-Blue)
T1 sequence (Q9NR97 27-1041): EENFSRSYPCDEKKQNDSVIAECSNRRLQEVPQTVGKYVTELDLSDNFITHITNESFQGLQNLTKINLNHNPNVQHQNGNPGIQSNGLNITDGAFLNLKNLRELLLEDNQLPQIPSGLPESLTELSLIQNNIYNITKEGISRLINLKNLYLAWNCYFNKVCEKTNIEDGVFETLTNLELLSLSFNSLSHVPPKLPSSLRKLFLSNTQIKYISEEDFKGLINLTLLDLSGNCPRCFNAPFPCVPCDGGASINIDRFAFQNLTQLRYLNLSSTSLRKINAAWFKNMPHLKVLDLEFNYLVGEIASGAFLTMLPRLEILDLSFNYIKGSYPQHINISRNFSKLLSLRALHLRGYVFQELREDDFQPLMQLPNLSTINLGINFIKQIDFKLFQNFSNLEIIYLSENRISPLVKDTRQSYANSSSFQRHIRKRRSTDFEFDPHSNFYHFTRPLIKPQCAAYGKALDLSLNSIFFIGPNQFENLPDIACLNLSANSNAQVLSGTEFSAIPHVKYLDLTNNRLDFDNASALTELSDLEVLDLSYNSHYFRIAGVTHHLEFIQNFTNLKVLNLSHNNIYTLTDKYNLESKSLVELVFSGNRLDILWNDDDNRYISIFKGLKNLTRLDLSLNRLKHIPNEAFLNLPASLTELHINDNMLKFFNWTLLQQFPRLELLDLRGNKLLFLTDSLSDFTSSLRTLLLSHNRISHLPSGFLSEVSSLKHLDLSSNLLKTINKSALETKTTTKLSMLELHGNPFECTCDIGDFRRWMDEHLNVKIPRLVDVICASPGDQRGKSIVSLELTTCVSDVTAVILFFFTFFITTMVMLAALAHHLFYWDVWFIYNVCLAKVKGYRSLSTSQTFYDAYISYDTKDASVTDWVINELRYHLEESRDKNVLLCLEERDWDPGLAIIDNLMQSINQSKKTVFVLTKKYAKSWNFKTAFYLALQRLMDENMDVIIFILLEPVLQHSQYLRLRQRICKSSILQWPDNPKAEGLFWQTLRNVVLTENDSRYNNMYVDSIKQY
Put plainly: HEK293-Blue-hTLR-8 cells assay (SEAP reporter, R848 stimulation). Type of data set: cell-based. The note with it: HEK293-Blue-hTLR8 cells, R848, 20 hrs; read-out: HEK/hTLR8 IC50. The source says:
A stable HEK293-Blue-hTLR-8 cell line was purchased from InvivoGen (Cat.#: hkb-htlr8, San Diego, California, USA). These cells were originally designed for studying the stimulation of human TLR8 by monitoring the activation of NF-κB. A SEAP (secreted embryonic alkaline phosphatase) reporter gene was placed under the control of the IFN-β minimal promoter fused to five NF-κB and AP-1-binding sites. The SEAP was induced by activating NF-κB and AP-1 via stimulating HEK-Blue hTLR8 cells with TLR8 ligands. Therefore, the reporter expression was declined by TLR8 antagonist under the stimulation of a ligand, such as R848, for incubation of 20 hrs. The cell culture supernatant SEAP reporter activity was determined using QUANTI-Blue™ kit (Cat.#: rep-qb1, Invivogen, San Diego, Ca, USA) at a wavelength of 640 nm, a detection medium that turns purple or blue in the presence of alkaline phosphatase.
HEK293-Blue-hTLR8 cells were incubated at a density of 250,000-450,000 cells/mL in a volume of 170 µL in a 96-well plate in Dulbecco's Modified Eagle's medium (DMEM) containing 4.5 g/L glucose, 50 U/mL penicillin, […], […], 2 mM L-glutamine, 10% (v/v) heat-inactivated fetal bovine serum with addition of 20 µL test compound in a serial dilution in the presence of final DMSO at 1% and 10 µL of 60uM R848 in above DMEM, perform incubation under 37 °C in a CO2 incubator for 20 hrs. Then 20 µL of the supernatant from each well was incubated with 180 µL Quanti-blue substrate solution at 37°C for 2 hrs and the absorbance was read at 620-655 nm using a spectrophotometer. The signaling pathway that TLR8 activation leads to downstream NF-κB activation has been widely accepted, and therefore similar reporter assay was modified for evaluating TLR8 antagonist.

Data set [2] concerns the target T2, hERG channel (Homo sapiens, UniProt Q12809).
T2 construct: expressed in transfected cells; host or cells: CHO (Chinese hamster ovary)
Put plainly: hERG channel inhibition assay (patch-clamp, CHO hERG cells). In kind it is cell-based. The note with it: for IC50 / IC20: CHO hERG cells, whole-cell patch-clamp; for IC20: human, CHO cells stably expressing hERG; for hERG IC20 / TLR8 IC50 / hERG IC20 / TLR7 IC50 / hERG IC20 / TLR9 IC50: safety ratio; for hERG IC20 / TLR7 IC50: TLR7 IC50 of ER compounds from Table 1; for hERG IC20 / TLR9 IC50: TLR9 IC50 of ER compounds from Table 1. How it is done: The hERG K^+ channels were cloned in humans and stably expressed in a CHO (Chinese hamster ovary) cell line. CHOhERG cells were used for patch-clamp (voltage-clamp, whole-cell) experiments. Cells were stimulated by a voltage pattern to activate hERG channels and conduct IKhERG currents (rapid delayed outward rectifier potassium current of the hERG channel). After the cells were stabilized for a few minutes, the amplitude and kinetics of IKhERG were recorded at a stimulation frequency of 0.1 Hz (6 bpm). Thereafter, the test compound was added to the preparation at increasing concentrations. For each concentration, an attempt was made to reach a steady-state effect, usually, this was achieved within 3-10 min at which time the next highest concentration was applied. The amplitude and kinetics of IKhERG are recorded in each concentration of the drug which were compared to the control values (taken as 100%). (references: Redfern WS, Carlsson L, Davis AS, Lynch WG, MacKenzie I, Palethorpe S, Siegl PK, Strang I, Sullivan AT, Wallis R, Camm AJ, Hammond TG. 2003; Relationships between preclinical cardiac electrophysiology, clinical QT interval prolongation and torsade de pointes for a broad range of drugs: evidence for a provisional safety margin in drug development. Cardiovasc. Res. 58:32-45, Sanguinetti MC, Tristani-Firouzi M. 2006; hERG potassium channels and cardiac arrhythmia. Nature 440:463-469, Webster R, Leishman D, Walker D. 2002; Towards a drug concentration effect relationship for QT prolongation and torsades de pointes. Curr. Opin. Drug Discov. Devel. 5:116-26).
Table 3. hERG and safety ratio results

T2 sequence (Q12809 whole entry): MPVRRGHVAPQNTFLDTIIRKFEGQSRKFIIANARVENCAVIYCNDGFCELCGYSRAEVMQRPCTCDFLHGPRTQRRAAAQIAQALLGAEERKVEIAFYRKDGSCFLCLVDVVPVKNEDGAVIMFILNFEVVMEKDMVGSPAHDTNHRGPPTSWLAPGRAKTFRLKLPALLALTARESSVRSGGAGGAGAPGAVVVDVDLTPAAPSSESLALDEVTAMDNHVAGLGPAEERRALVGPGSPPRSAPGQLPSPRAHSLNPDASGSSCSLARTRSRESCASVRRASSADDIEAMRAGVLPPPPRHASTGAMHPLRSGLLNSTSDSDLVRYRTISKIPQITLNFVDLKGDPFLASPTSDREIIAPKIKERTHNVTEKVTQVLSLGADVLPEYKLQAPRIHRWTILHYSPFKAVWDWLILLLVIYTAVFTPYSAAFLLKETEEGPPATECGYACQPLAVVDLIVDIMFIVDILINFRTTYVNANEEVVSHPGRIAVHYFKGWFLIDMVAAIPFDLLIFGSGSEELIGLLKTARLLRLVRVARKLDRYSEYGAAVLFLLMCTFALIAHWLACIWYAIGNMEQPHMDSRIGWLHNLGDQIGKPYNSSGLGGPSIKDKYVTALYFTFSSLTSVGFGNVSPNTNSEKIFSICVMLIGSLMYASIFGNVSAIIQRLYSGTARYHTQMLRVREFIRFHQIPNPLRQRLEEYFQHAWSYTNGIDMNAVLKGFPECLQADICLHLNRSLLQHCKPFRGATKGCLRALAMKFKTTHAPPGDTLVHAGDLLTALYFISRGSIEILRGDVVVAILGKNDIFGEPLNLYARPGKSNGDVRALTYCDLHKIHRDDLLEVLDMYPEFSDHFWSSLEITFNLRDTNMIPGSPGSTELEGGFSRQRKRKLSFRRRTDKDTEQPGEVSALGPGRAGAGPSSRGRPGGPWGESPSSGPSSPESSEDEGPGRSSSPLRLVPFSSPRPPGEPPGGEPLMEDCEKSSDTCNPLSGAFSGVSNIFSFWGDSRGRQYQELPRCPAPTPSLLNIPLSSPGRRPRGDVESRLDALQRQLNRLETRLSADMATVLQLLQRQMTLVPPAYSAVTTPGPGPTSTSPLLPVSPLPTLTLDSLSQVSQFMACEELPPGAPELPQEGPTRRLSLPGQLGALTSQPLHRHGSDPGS

Consider `C[C@@H]1CN(c2ccc(C#N)c3ncccc23)C[C@H](CN2CCN(c3ccc4c(c3)CNC4)CC2)O1` [Example 7, 5-[(2S,6R)-2-[(4-isoindolin-5-ylpiperazin-1-yl)methyl]-6-methyl-morpholin-4-yl] quinoline-8-carbonitrile], for which, in data set [1], the IC50 is 30 nM. In data set [2], the IC50 is over 20000 nM, the IC20 worked out at 5740 nM, the “hERG IC20 / TLR8 IC50” value is given as 194.6 and the “hERG IC20 / TLR7 IC50” value came to 146.5. Also, the “hERG IC20 / TLR9 IC50” value in data set [2] was determined as 64.5.
Turning to `C[C@@H]1CN(c2ccc(C#N)c3ncccc23)C[C@H](CN2CCN(c3ccc4c(n3)CNC4)CC2)O1` [Example 30, 5-[(2S,6R)-2-[[4-(6,7-dihydro-5H-pyrrolo[3,4-b]pyridin-2-yl)piperazin-1-yl]methyl]-6-methyl-morpholin-4-yl] quinoline-8-carbonitrile], in data set [1], the IC50 turned out to be 7 nM. In data set [2], the IC50 is over 20000 nM, the IC20 was over 10000 nM, the “hERG IC20 / TLR8 IC50” value is listed as over 1515.2 and the “hERG IC20 / TLR7 IC50” value is reported as over 840.3. Further, the “hERG IC20 / TLR9 IC50” value in data set [2] was over 246.3.
For the molecule `C[C@@H]1CN(c2ccc(C#N)c3ncccc23)C[C@H](CN2CC3(C2)CN(c2cnc4c(c2)CCNC4)CCO3)O1` [Example 46, 5-[(2R,6S)-2-methyl-6-[[8-(5,6,7,8-tetrahydro-1,7-naphthyridin-3-yl)-5-oxa-2,8-diazaspiro[3.5]nonan-2-yl]methyl]morpholin-4-yl]quinoline-8-carbonitrile], the IC50 in data set [1] amounted to 9 nM.
The same measure, in the same setting: next, `C[C@@H]1CN(c2ccc(C#N)c3ncccc23)C[C@H](CN2CC3(C2)CN(c2ncc4c(n2)CCNC4)CCO3)O1` [Example 51, 5-[(2R,6S)-2-methyl-6-[[8-(5,6,7,8-tetrahydropyrido[4,3-d]pyrimidin-2-yl)-5-oxa-2,8-diazaspiro[3.5]nonan-2-yl]methyl]morpholin-4-yl]quinoline-8-carbonitrile]: 5 nM.
Same read-out and setting: then `C[C@@H]1CN(c2ccc(C#N)c3ncccc23)C[C@H](CN2CC3(C2)CN(c2ccc4c(n2)CNCC4)CCO3)O1` [Example 45, 5-[(2R,6S)-2-methyl-6-[[8-(5,6,7,8-tetrahydro-1,7-naphthyridin-2-yl)-5-oxa-2,8-diazaspiro[3.5]nonan-2-yl]methyl]morpholin-4-yl]quinoline-8-carbonitrile], with 10 nM; and `C[C@@H]1CN(c2ccc(C#N)c3ncccc23)C[C@H](CN2CC3[C@H](C2)OCCN3c2ccc3c(n2)CCNC3)O1` (stereo in doubt) [Example 53, cis-5-[(2R,6S)-2-methyl-6-[[4-(5,6,7,8-tetrahydro-1,6-naphthyridin-2-yl)-2,3,4a,5,7,7a-hexahydropyrrolo[3,4-b][1,4]oxazin-6-yl]methyl]morpholin-4-yl]quinoline-8-carbonitrile], with 21 nM.
On the same count and under the same terms, then `C[C@@H]1CN(c2ccc(C#N)c3nccnc23)C[C@H](CN2CCN(c3cc4c(cn3)[C@H](C)NCC4)CC2)O1` (single isomer, unassigned) [Example 85], with 2 nM.
For `C[C@@H]1CN(c2ccc(C#N)c3ncccc23)C[C@H](CN2CCN(c3nccc4c3CCNC4)CC2)O1` [Example 62, 5-[(2R,6S)-2-methyl-6-[[4-(5,6,7,8-tetrahydro-2,6-naphthyridin-1-yl)piperazin-1-yl]methyl]morpholin-4-yl]quinoline-8-carbonitrile], the IC50 in data set [1] is 14 nM.
`C[C@@H]1CN(c2ccc(C#N)c3ncccc23)C[C@H](CN2CCN(c3ccc4c(n3)CCNC4)C[C@@H](O)C2)O1` (single isomer, unassigned) [Example 35B]: in data set [1], the IC50 was determined as 23 nM.
For the molecule `C[C@@H]1CN(c2ccc(C#N)n3ncc(F)c23)C[C@H](CN2CCN(c3cnc4c(c3)CNC4)CC2)O1` [Example 26, 4-[(2S,6R)-2-[[4-(6,7-dihydro-5H-pyrrolo[3,4-b]pyridin-3-yl)piperazin-1-yl]methyl]-6-methyl-morpholin-4-yl]-3-fluoro-pyrazolo[1,5-a]pyridine-7-carbonitrile], the IC50 in data set [1] was determined as 49 nM.
On to `C[C@@H]1CN(c2ccc(C#N)c3nccnc23)C[C@H](CN2CCN(c3ccc4c(n3)CN[C@H]4C)CC2)O1` (single isomer, unassigned) [Example 78], for which the IC50 in data set [1] amounted to 2 nM.
On the same count and under the same terms, next, `C[C@@H]1CN(c2ccc(C#N)c3ncccc23)C[C@H](CN2CCCN(c3ncc4c(n3)CCNC4)CC2)O1` [Example 39, 5-[(2R,6S)-2-methyl-6-[[4-(5,6,7,8-tetrahydropyrido[4,3-d]pyrimidin-2-yl)-1,4-diazepan-1-yl]methyl]morpholin-4-yl]quinoline-8-carbonitrile]: 12 nM.
As to `C[C@@H]1CN(c2ccc(C#N)c3ncccc23)C[C@H](CN2CCN(c3ncc4c(n3)CCNC4)CC2)O1` [Example 29, 5-[(2R,6S)-2-methyl-6-[[4-(5,6,7,8-tetrahydropyrido[4,3-d]pyrimidin-2-yl)piperazin-1-yl]methyl]morpholin-4-yl]quinoline-8-carbonitrile], the IC50 in data set [1] was under 3 nM.
Still for that read-out and setting: then `C[C@@H]1CN(c2ccc(C#N)c3nccnc23)C[C@H](CN2CCN(c3ccc4c(n3)CN[C@@H]4C)CC2)O1` (single isomer, unassigned) [Example 79], with 2 nM; and `C[C@@H]1CN(c2ccc(C#N)c3ncccc23)C[C@H](CN2CCN(c3ccc4c(c3)CNC4)C(CO)C2)O1` (stereo partly drawn) [Example 13, 5-[(2S,6R)-2-[[3-(hydroxymethyl)-4-isoindolin-5-yl-piperazin-1-yl]methyl]-6-methyl-morpholin-4-yl]quinoline-8-carbonitrile], with 22 nM.
